According to PubChem BioAssay AID493002 (Sanford-Burnham Center for Chemical Genomics, 2010):

Test system: S. cerevisiae tim23-1 mutant growth, luminescence
Experiment: tim23-1 mutant yeast growth inhibitors, dose response, luminescence, uHTS hits (AID 493002);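 note: yeast grown roughly 22 hours at 25 °C before the luminescence read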

Row | Structure (SMILES) | IC50 [µM]
1 | CCOC(=O)c1c(NC(=O)CSc2nnnn2-c2ccc(OC)cc2)sc(C)c1C | 4.12
2 | CN1C(=O)C(=Cc2ccccc2OS(=O)(=O)c2ccccc2)C(=O)N(C)C1=O | 6.59
3 | COc1ccc2c(c1)OC[C@H]1[C@H]2N2C(=O)c3cc(C)ccc3NC(=O)[C@@]2(C)[C@H]1c1ccccc1 | 13.1
4 | COC(=O)c1ccc(-c2ccc(C(c3c(C)[nH][nH]c3=O)c3c(C)[nH][nH]c3=O)o2)cc1 | 11.2
5 | CN1C(=O)/C(=C\c2ccco2)N=C1c1ccc(Cl)cc1Cl | 12.8
6 | N=c1c2c(-c3ccccc3)c(-c3ccccc3)n(Cc3ccco3)c2ncn1Cc1ccco1 | 9.92
7 | O=C(Nc1ccc(Br)c(Cl)c1)c1ccco1 | 18.4
8 | CO/C(N)=C(\C#N)N=Cc1ccccc1Cl | 8.6
9 | COc1cccc(NC(=O)c2ccccc2)c1 | 11.3
10 | CCCCc1cc(O)c(CCCC)c(O)c1 | 3.69
11 | O=Cc1cnc2ccccc2c1-c1ccccc1 | 6.97
12 | COc1ccc2c(=O)c3c(=O)n(Cc4ccco4)c(-c4ccccc4)nc3oc2c1 | 17.5
13 | Cc1cccc(C(=O)Oc2cccc3c(O)cccc23)c1 | 8.32
14 | Cc1cccc(CN2C(=O)/C(=C\c3ccc(C(=O)NCCCN4CCN(C)CC4)cc3)Oc3ccccc32)c1 | 17.5
15 | Cc1cc(=O)oc2c1c(C(F)(F)F)nn2-c1ccccc1 | 7.85
16 | CNC(=S)N/N=C/c1cc(Br)cc(Br)c1O | 3.14
17 | O=C(/C(=C/O)N=Nc1ccccc1)c1ccco1 | 10.7
18 | O=C(Nc1ncc([N+](=O)[O-])s1)c1ccc2c(c1)OCO2 | 17.6
19 | Cc1cccc(C)c1N1C(=O)CN(Cc2ccccc2)C1=S | 28.1
20 | COc1ccc2c(c1)-c1nc(NC(=O)c3cccs3)sc1CC2 | 21.7
21 | Cc1nc2ccc(NC(=O)c3cccs3)cc2c(=O)n1Cc1ccc(Cl)cc1 | 12
22 | O=C1NN=C(c2ccc(Br)cc2)CC1c1ccc(Cl)cc1 (stereo not given) | 9.86
23 | O=C(Nc1cn(-c2ccccc2)nc1-c1cccs1)c1ccco1 | 29
24 | O=C(NCCCc1ccccc1)c1c(O)nc2sccn2c1=O | 4.63
25 | O=C(Nc1ccc(-c2cn3ccccc3n2)cc1)c1cccs1 | 2.92

Row | Structure (SMILES) | IC50 [µM]
26 | CCn1ncc([N+](=O)[O-])c1C(=O)Nc1nc2cccc(C)c2s1 | 17.7
27 | CC(C)n1ncc2c(C(=O)NCC(=O)Nc3ccccc3Br)cc(C3CC3)nc21 | 16
28 | CCC(C)c1ccc(NC(=O)C2CC3CCC2C3)cc1 (stereo not given) | 12.5
29 | Cc1nc2scc(C)n2c(=O)c1S(=O)(=O)Nc1ccc(N2CCOCC2)cc1 | 6.67
30 | CC(C)CCN1C(=O)c2cccc3c(N)ccc(c23)C1=O | 9.07
31 | O=C(Nc1scc(-c2ccccc2)c1C(=O)O)c1ccccc1F | 12.2
32 | CC(/C=N/NC(=O)c1cccs1)=C\c1ccco1 | 24.3
33 | COc1ccc(-c2cc(-c3ccccc3)n[nH]2)c(O)c1 | 18.3
34 | COc1ccc(C(=O)Nc2nc3ccccc3s2)c(OC)c1 | 5.92
35 | Cc1ccc(/C=N/NC(=O)c2csc3c2CCCC3)cc1 | 15.1
36 | CCNC(=O)c1c(O)c2ccccc2[nH]c1=O | 33.5
37 | O=C(c1cccnc1)C1Cc2ccccc2C1=O (stereo not given) | 9.94
38 | c1ccc(-c2cc3ccccc3cn2)cc1 | 8.34
39 | CC(C)(C)c1csc(NC(=O)c2ccc(Cl)s2)n1 | 4.07
40 | CCc1ccc2oc(-c3cc(N)ccc3Cl)nc2c1 | 6.18
41 | COc1ccc(/C=C(\C#N)c2nc3ccccc3[nH]2)cc1O | 14.8
42 | CC(C)Cn1cnc2c(c(-c3ccccc3)c(-c3ccccc3)n2Cc2ccco2)c1=N | 9.48
43 | CCOC(=O)c1c(C)oc2c1c(C(c1cccnc1)N1CCCCC1)c(O)c1ccccc12 (stereo not given) | 21.5
44 | CCOC(=O)c1sc(=NC(=O)c2ccco2)n(C)c1C | 14.1
45 | Nc1nc(Nc2ccccc2)sc1C(=O)c1ccccc1 | 21
46 | CN(C)c1c2ccccc2nc2c(F)c(F)c(F)c(F)c12 | 16.6
47 | O=C(Oc1ccc(=O)n(-c2ccccc2)n1)c1ccc(Cl)cc1 | 11.8
48 | O=c1c(-c2ccc3c(c2)OCCO3)c(C(F)(F)F)oc2cc(O)cc(O)c12 | 12.6
49 | CC(C)CN1C(=O)c2ccc(NC(=O)c3ccco3)cc2C1=O | 20.2
50 | O=c1oc(-c2ccc(Br)o2)nc2ccccc12 | 9.8

Row | Structure (SMILES) | IC50 [µM]
51 | CCCOc1cccc(C(=O)N/N=C/c2coc3ccccc3c2=O)c1 | 13.4
52 | Brc1ccc(OCc2nnnn2-c2ccccc2)cc1 | 11.3
53 | Cc1ccc(OCc2cc(C(=O)NCc3cnn(-c4cccc(F)c4)c3)no2)cn1 | 14.8
54 | O=C1OC(c2ccccc2)=N/C1=C\C=C\c1ccco1 | 5.33
55 | Cc1ccc2occ(/C=N/NC(=O)c3ccccc3Br)c(=O)c2c1 | 9.7
56 | O=C1c2ccccc2-c2n[nH]c3cccc1c23 | 6.31
57 | O=C(Oc1cccc2c(O)cccc12)c1ccccc1 | 8.69
58 | Cc1nc2c(n1C1CCCCC1)C(=O)c1ccccc1C2=O | 10.8
59 | c1ccc(-c2cc3cc4c(cc3cn2)OCO4)cc1 | 17
60 | O=C(CSc1cccs1)Nc1ccc2ccccc2c1 | 12.2
61 | O=C(N/N=C/C(Br)=C/c1ccccc1)c1cccs1 | 6.9
62 | Cc1nc2nc(-c3cccs3)[nH]c2cc1Br | 7.8
63 | N#C/C(=C\c1ccc(O)cc1)c1nc2ccccc2o1 | 6.42
64 | Cc1ccc(C(=O)NC(=S)NCc2ccccc2)cc1 | 12.1
65 | Nc1ncnc2c1ncn2[C@@H]1O[C@H](CO)C[C@H]1O | 14
66 | Cc1ccc(S(=O)(=O)n2ccc(OC(=O)c3cccs3)n2)cc1 | 8.39
67 | COc1ccc(CCCC(=O)N/N=C/c2ccc(C)cc2)cc1 | 16.7
68 | Nc1cccc(-c2nc3ccc(C(=O)c4ccccc4)cc3[nH]2)c1 | 10.7
69 | CC1(C)CC(n2c(NCCO)nc3c(c2=O)C2(CCCC2)Cc2ccccc2-3)CCO1 (stereo not given) | 8.62
70 | N=c1c2c(-c3ccccc3)c(-c3ccccc3)n(Cc3ccco3)c2ncn1Cc1ccccc1 | 10.9
71 | COc1cc(/C=N/NC(=O)c2ccc(N)cc2)ccc1OC(=O)c1cccc(C)c1 | 9.83
72 | COCCNC(=O)/C(C#N)=C/c1ccc(OCc2ccc(F)cc2)cc1 | 10.5
73 | COc1ccccc1-c1cc(C(=O)N/N=C/c2ccc(C)s2)c2ccccc2n1 | 18.8
74 | c1cnc2c(c1)ccc1cccnc12 | 9.59
75 | C/C(=N\Nc1nc2ccccc2s1)c1cccs1 | 9.27

Row | Structure (SMILES) | IC50 [µM]
76 | COC(=O)c1ccc2nc(NC(=O)C3CC3)sc2c1 | 7.12
77 | Cc1ccnc(NC(=O)c2ccc3c(c2)C(=O)N(CC(C)C)C3=O)c1 | 13
78 | COc1ccc(NCc2ccc([N+](=O)[O-])s2)cc1 | 6.99
79 | CC(C)(C)c1csc(NC(=O)c2ccc(Br)o2)n1 | 9.04
80 | Cn1c(=O)c(C(=O)Nc2ncccn2)c(O)c2ccccc21 | 8.49
81 | Oc1ccc(-c2nccc(-c3cccs3)n2)cc1 | 20.2
82 | O=c1c2ccccc2nc(-c2ccc([N+](=O)[O-])cc2)n1O | 7.67
83 | O=c1oc(Cl)c(Cl)c2ccccc12 | 3.83
84 | O=C(Nc1ccc(F)c(Cl)c1)c1ccccc1 | 11.5
85 | O=C(Nc1ccc(-c2nc3ccccc3[nH]2)cc1)C1CCCO1 (stereo not given) | 14.4
86 | O=C(Nc1ccc2nc(-c3ccc(Br)o3)[nH]c2c1)c1ccco1 | 5.88
87 | COc1ccc2c(c1)sc1nc(-c3ccccc3)cn12 | 6.68
88 | Cn1c(=O)c(C(=O)Nc2ccccn2)c(O)c2ccccc21 | 15.2
89 | Oc1ccc(/C=N/Nc2cccc(Cl)n2)c(O)c1 | 10.6
90 | Oc1ccccc1-c1cc(-c2ccc(F)cc2)n[nH]1 | 13.5
91 | Cc1nc(Nc2ccccc2)sc1C(=O)Nc1ccccc1 | 14.6
92 | Cc1ccc(NC(=O)c2ccc3c(c2)OCCO3)cc1C | 13
93 | CCOC(=O)c1cccc(OC(=O)CCNC(=O)c2ccc(Cl)cc2)c1 | 13.1
94 | COc1ccc(OC)c(-c2csc(NC(=O)Cc3ccc(F)cc3)n2)c1 | 9.63
95 | N#C/C(=C\c1ccc(Cl)cc1)C(=O)NC1CC1 | 7.09
96 | COc1ccc(/C=N/NC(=O)c2cccs2)c2ccccc12 | 13.7
97 | CCCCCCn1c(=O)c(-c2ccccc2)c(O)c2ccccc21 | 8.95
98 | COc1ccc(-c2nc3ccccc3[nH]2)cc1 | 18
99 | COc1ccc(N2CCC(CNC(=S)Nc3ccc(C)cc3C)C2)cc1 (stereo not given) | 7.54
100 | CCOC(=O)C1=C(CSc2nc(CC)c(C)cc2C#N)OC(N)=C(C#N)C1c1ccc(OC)cc1 (stereo not given) | 17.8

Row | Structure (SMILES) | IC50 [µM]
101 | COc1ccc(C(C[N+](=O)[O-])c2c(-c3ccccc3)cc3ccccn23)cc1OC (stereo not given) | 12.7
102 | O=C(Nc1ccc(Nc2ccccc2)cc1)c1ccccc1F | 21.9
103 | CC(C)Oc1cc(O)c2c(=O)c(-c3ccc(O)cc3)coc2c1 | 7.38
104 | O=C(Nc1ccc2oc(-c3ccccc3)nc2c1)c1cccnc1 | 5.53
105 | O=C(Nc1cc(-c2ccccc2)[nH]n1)c1ccccc1 | 4.2
106 | Oc1c(Cl)cc(Cl)cc1CNc1nccs1 | 15.3
107 | Fc1ccccc1-c1cc2cc3c(cc2cn1)OCO3 | 16.1
108 | Cc1ccc2nc(NC(=O)Cn3nc(C)c([N+](=O)[O-])c3C)sc2c1 | 6.13
109 | CC[C@@]1(c2ccccc2OC)ON(c2ccccc2C(F)(F)F)C1=O | 5.91
110 | Cc1ccc(NC(=O)CN2C(=O)CN=C(c3ccccc3)c3cc(Cl)ccc32)cc1 | 13.1
111 | O=C(CSc1cccc[n+]1[O-])Nc1ccccc1Oc1ccccc1 | 3.98
112 | O=C(COc1ccccc1)N/N=C/c1ccc([N+](=O)[O-])o1 | 6.56
113 | COc1cccc(Nc2nc3ccc(OC)cc3s2)c1 | 10.1
114 | COC(=O)c1ccc(NC(=O)CSc2nc(=O)n3cccc(C)c3n2)cc1 | 22.7
115 | CCC(C)c1ccc(NC(=O)COC(=O)C2CCCC2)cc1 (stereo not given) | 10.7
116 | Clc1nssc1=Nc1nncs1 | 3.05
117 | Cc1ccc(S(=O)(=O)N2C(=O)[C@@H]3Cc4ccccc4CN3C2=O)cc1 | 30.5
118 | COc1ccc2oc(/C=C/N(C)C)c(C(=O)c3ccc(Cl)cc3)c2c1 | 15
119 | COc1cc2ccccc2cc1C(=O)Nc1ccc(C)cc1 | 12.5
120 | CCCCC(=O)Nc1ccc(NC(=O)c2cccs2)cn1 | 18.8
121 | CN(C)/C=C1/C=C(c2ccccc2)OC1=O | 12
122 | Cc1[nH][nH]c(=O)c1C(c1ccc(-c2ccc(F)cc2)o1)c1c(C)[nH][nH]c1=O | 7.74
123 | CCOC(=O)c1ccc(NC(=O)/C=C/c2cccs2)cc1 | 26.6
124 | O=S(=O)(CCSc1ccccn1)c1nc2ccccc2s1 | 10
125 | O=C(N/N=C/c1ccc([N+](=O)[O-])s1)c1ccncc1 | 4.88
